Data as given in PMC13335808 (Advanced Science, 2026).

Target: LRRK2 G2019S (Homo sapiens, UniProt Q5S007, G2019S)
Assay: ADP-Glo Kinase Assay, LRRK2 G2019S
Type: biochemical
Details: 120 min kinase reaction at 25 °C, 10 concentrations, read-out: IC50 (LRRK2 G2019S_ADP-Glo Assay)
Procedure: Kinase inhibition assays were performed using the ADP-Glo^TM Kinase Assay (Promega) in 384-well format. A 2× ATP/substrate solution and a 2× kinase solution was prepared in kinase reaction buffer. Compounds were dispensed into the assay plates (100 nL per well) using an Echo 655 acoustic dispenser. Subsequently, 5 μL of the 2× kinase solutions were added to each well, followed by centrifugation at 1000 rpm for 1 min and incubation at 25 °C for 10 min. The kinase reactions were initiated by the addition of 5 μL of the 2× ATP/substrate solution.
Following the kinase reaction, 5 μL of ADP-Glo reagent was added to each well. Plates were centrifuged at 1000 rpm for 1 min and incubated at 25 °C for 60 min to terminate the reaction and deplete unconsumed ATP. […] Luminescence signals were recorded using a BMG plate reader.
The percentage inhibition (inhibition%) was calculated as: […]
IC50 values were determined by nonlinear regression of the inhibition% versus the logarithm of compound concentrations using a four-parameter sigmoidal dose–response model (variable slope) in GraphPad Prism 10.0. […]
Ten different concentrations were tested for each compound. […] Residual kinase activity was determined based on luminescence readouts, and the data were normalized to vehicle (100% activity) and complete inhibition controls (0% activity). […]

Chain of LRRK2 G2019S (Q5S007 whole entry G2019S): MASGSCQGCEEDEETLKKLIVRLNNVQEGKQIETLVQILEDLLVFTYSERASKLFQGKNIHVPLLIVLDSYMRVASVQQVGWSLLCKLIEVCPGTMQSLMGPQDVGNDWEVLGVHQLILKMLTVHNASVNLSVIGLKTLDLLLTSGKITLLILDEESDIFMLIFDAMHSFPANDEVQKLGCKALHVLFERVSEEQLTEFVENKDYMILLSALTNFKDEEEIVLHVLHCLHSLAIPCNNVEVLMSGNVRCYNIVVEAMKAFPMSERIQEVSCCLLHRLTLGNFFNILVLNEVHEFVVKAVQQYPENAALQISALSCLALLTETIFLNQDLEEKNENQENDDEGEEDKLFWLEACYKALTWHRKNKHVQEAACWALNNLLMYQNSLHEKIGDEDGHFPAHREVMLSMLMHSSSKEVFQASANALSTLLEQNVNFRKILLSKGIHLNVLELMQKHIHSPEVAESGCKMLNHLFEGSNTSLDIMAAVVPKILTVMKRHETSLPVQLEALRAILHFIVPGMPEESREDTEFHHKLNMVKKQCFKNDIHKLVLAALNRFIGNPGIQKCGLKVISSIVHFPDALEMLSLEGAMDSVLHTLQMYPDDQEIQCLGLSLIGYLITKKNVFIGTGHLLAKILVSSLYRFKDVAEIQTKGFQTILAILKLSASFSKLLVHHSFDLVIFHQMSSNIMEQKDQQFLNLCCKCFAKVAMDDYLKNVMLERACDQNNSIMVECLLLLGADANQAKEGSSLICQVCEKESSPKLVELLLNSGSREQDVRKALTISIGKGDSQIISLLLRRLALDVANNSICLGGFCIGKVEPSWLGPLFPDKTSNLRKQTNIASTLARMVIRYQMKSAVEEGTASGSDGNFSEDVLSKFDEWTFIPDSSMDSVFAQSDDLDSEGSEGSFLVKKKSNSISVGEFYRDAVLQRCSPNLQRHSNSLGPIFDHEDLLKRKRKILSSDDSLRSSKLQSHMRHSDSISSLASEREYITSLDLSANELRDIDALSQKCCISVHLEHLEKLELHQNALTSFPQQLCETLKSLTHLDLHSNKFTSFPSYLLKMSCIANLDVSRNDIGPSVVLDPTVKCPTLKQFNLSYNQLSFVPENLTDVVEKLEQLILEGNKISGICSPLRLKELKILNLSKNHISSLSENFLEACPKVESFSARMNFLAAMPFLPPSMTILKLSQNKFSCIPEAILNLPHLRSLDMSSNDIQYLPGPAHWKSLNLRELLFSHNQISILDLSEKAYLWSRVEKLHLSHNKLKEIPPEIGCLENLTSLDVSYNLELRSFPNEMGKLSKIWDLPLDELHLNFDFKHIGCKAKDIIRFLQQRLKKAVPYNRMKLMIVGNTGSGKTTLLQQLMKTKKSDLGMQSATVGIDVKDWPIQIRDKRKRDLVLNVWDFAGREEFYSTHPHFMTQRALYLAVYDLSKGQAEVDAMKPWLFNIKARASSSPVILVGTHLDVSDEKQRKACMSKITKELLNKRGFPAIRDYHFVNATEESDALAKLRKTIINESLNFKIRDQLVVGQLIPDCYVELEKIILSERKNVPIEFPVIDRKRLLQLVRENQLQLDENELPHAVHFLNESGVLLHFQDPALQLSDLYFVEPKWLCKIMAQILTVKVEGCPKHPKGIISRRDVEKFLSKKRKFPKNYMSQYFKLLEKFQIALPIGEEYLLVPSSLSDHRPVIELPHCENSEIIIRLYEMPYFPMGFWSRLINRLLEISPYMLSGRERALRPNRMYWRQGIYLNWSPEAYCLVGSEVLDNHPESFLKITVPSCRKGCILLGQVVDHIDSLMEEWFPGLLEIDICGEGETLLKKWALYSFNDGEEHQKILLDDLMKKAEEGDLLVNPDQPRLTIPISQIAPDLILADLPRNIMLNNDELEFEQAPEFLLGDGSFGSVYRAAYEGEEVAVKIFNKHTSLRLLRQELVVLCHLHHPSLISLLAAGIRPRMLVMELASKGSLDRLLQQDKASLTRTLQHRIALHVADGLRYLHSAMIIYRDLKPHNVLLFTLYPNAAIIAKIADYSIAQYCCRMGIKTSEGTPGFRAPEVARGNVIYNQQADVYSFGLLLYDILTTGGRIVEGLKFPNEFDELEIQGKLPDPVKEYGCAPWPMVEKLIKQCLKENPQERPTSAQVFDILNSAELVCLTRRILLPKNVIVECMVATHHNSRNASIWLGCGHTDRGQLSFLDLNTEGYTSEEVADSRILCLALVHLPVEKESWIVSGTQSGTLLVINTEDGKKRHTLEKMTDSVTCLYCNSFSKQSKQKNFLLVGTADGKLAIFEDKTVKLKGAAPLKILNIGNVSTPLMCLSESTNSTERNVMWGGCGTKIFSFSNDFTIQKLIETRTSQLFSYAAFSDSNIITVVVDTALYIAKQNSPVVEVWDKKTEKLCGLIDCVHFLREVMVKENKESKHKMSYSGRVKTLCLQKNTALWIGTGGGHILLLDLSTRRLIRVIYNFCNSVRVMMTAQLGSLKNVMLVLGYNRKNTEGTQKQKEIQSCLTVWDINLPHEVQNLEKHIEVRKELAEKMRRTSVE

`COc1cc(C(=O)N2CCC(N3CCN(C)CC3)CC2)ccc1Nc1ncc2c(n1)N(C)c1ccccc1C(=O)N2C` [LRRK2-IN-1] showed an IC50 of 5.25 nM.
